Key:
Trichophyton rubrum = experiment: Inhibition of growth of Trichophyton rubrum over 28 days, daily dosing; type: cell-based
Description: The inhibitory effect of HXL008 on the growth of Trichophyton rubrum (obtained from the National Mycology Reference Centre, South Australia Pathology at the Women's and Children's Hospital, Adelaide, Australia) was monitored over 28 days.
Spores of T. rubrum, are isolated from sporulating fungus growing on ½ strength Sabouraud dextrose agar. Spores are removed from the plates by the addition of ½ strength potato dextrose broth (PDB). Spore and cell concentrations are measured using a hemocytometer.
Spores were diluted to a concentration of 5×10^4 spores/mL in ½ PBD (2 mL) containing 0, 10 or 50 μg/mL HXL008. Cultures are incubated at 30 C without shaking. After 24 h, 100 μL of each culture is extracted and plated onto ½ SDA plates. An additional 100 uL of ½ PDB is then added containing either 0, 20 or 100 μg of HXL008. SDA plates are then incubated at 30 C for 5 days. This process is repeated every 24 h for 28 days. After 15 days, the culture containing no HXL008 becomes too thick to pipette and is no longer used in the assay.

[1] = tested on: Trichophyton rubrum, T. interdigitale, Microsporum fulvum and C. albicans; experiment: Inhibition assays summarised across the range of fungal pathogens; type: cell-based; settings: summary of Table 3
Description: The inhibitory effects of the plant defensins on the growth of Trichophyton rubrum, T. interdigitale, Microsporum fulvum and C. albicans (obtained from the National Mycology Reference Centre, South Australia Pathology at the Women's and Children's Hospital, Adelaide, Australia) are measured essentially as described by Broekaert et al. (1990) FEMS Microbiol Lett 69:55-59. Spores of T. rubrum, T. interdigitale and M. fulvum are isolated from sporulating fungus growing on 1⁄2 strength Sabouraud dextrose agar (SDA). Spores were removed from the plates by the addition of 1⁄2 strength potato dextrose broth (PDB). C. albicans cells are grown in Yeast Peptone Broth (YPD) for 16 h. Spore and cell concentrations are measured using a hemocytometer. Antifungal assays are conducted in 96 well microtitre plates essentially as herein described. Wells are loaded with 20 μL of filter sterilized (0.22 μm syringe filter, Millipore) defensin (10× stock for each final concentration) or water and 80 μL of 5×10^4 spores/mL (T. rubrum, T, interdigitale, M. fulvum) or 5,000 cells/mL (C. albicans) in 1⁄2 strength PDB. The plates are incubated at 30° C. Fungal growth is assayed by measuring optical density at 595 nm ([…]) using a microtitre plate reader (SpectraMax Pro M2; Molecular Devices. Growth is allowed to proceed until the optical density (OD) of the fungus in the absence of any test defensin reached an OD of 0.2. Each test is performed in duplicate.

Escherichia coli = experiment: Inhibition of the growth of Escherichia coli; type: cell-based; settings: 0.1625-10 μM, 18 hours, 37° C.
Description: A single E. coli colony was used to inoculate 5 ml of Luria-Bertani media and grown overnight at 37° C. The following day, the optical density of the culture was measured and the E. coli diluted to an optical density at 600 nm (OD600) of 0.01 in Mueller-Hinton Broth. Diluted E. coli were added to 96-well plates with defensins at concentrations of 10 μM, 5 μM, 2.5 μM, 1.25 μM, 0.625 μM, 0.3125 μM or 0.1625 μM. Plates were read at OD595 to obtain time zero data points. Plates were incubated at 37° C. for 18 hours before reading again at OD595 to assess the amount of E. coli growth.

[2] = tested on: clinical isolates of T. rubrum; experiment: Cell survival assay, clinical isolates of T. rubrum plated after 72 h with HXL008; type: cell-based, Trichophyton rubrum; settings: 72 h with HXL008 (100 g/mL, 100 μM elsewhere in the source), 5 days at 30° C.
Description: FIGS. 3(a) through (e) are photographic representations of surviving colonies of T. rubrum grown on agar plates after treatment with 100 μM HXL008 for 72 h. Panels (a) to (d) represent clinical isolates 14-01, 14-02, 14-03 and 13-04, respectively. Surviving colonies are marked with a black rectangle. Panel (e) represents the growth of T. rubrum that has not been treated with HXL008.
After incubation for 72 h, the media from wells containing clinical isolates of T. rubrum incubated with 100 […] HXL008 was plated onto fresh Sabouraud dextrose agar. Plates were incubated at 30° C. for 5 days to allow colonies to develop before being photographed.

[3] = type: in vitro ADME, Human
Description: Penetration of NaD1 through human nails was measured according to the method of Hui et al. (2002) J Pharm Sci 91(1):189-195. Human toenails were obtained from ScienceCare (USA) and washed with phosphate buffered saline (details, PBS) before being placed on a kimwipe that had been soaked in PBS for 3 h to rehydrate the nail. The nail was then placed in a plastic nail adapter with a dosing area of 0.5×0.5 cm (Permagear, USA) and a cotton bud wetted with 75 microlitres of PBS was placed in the receptor chamber in contact with the underside of the nail.
The cotton bud in contact with the underside of the nail was removed after 24 h and every 24 h following. Protein that had passed through the nail was recovered from the cotton bud by washing twice with 500 μL of 0.1% v/v trifluoroacetic acid. Recovered protein was quantified using RP-HPLC.

[4] = tested on: Human monocytic lymphoma (U937) cells; type: cell-based
Description: Human monocytic lymphoma (U937) cells are cultured in RPMI-1640 medium. All culture media are supplemented with 5-10% v/v fetal calf serum, 100 U/ml of penicillin, and 100 μg/ml of streptomycin. Cell lines are cultured at 37° C. in a humidified atmosphere containing 5% v/v CO2. Adherent cell lines are detached from the flask by adding a mixture containing 0.25% v/v trypsin and […]. A flow cytometry-based propidium iodide (PI) uptake assay is performed to analyze the ability of plant defensins to permeabilize U937 cells (essentially as described in Poon et al, 2014). Briefly, cells are suspended to 1×10^6 cells/ml in 0.1% v/v BSA/RPMI-1640 and incubated with plant defensins (10 μM) at 37° C. for 30 min. Samples are added to PBS containing a final concentration of 1 μg/ml PI and placed on ice. Samples are then analyzed immediately using the BD FACSCanto II Flow Cytometer and BD FACSDiva software v6.1.1. The resultant flow cytometry data is analyzed using FlowJo software v8.8.6. Cells are gated appropriately based on forward scatter and side scatter and cell permeabilization is defined by PI-positive staining.

In the case of “HXL008: Class I plant defensin from Picramnia pentandra, SEQ ID NO: 1 (KVCTKPSKFFKGLCGTDGACTTACRKEGLHSGYCQLKGFLNSVCVCRKHC; HXL008 Picramnia pentandra)”, the “Visible growth of T. rubrum in culture” value (Trichophyton rubrum; 10 μg/mL or 50 μg/mL, over the duration of the assay (28 days)) is reported as “did not display any visible growth”, the “T. rubrum cells killed” value (Trichophyton rubrum; HXL008 50 μg/mL, within 24 h) is reported as “more than 80%” and the “Surviving colonies per plate” value (Trichophyton rubrum; after 20 days of treatment, 100 μL plated) is reported as 0 or only 1. For the same substance, the “Antifungal activity across the range of fungal pathogens, result in words” value [1] was “most effective plant defensins across the range of fungal pathogens”, the “Growth of E. coli in the presence of defensin” value (Escherichia coli) was “did not inhibit growth of E. coli at the concentrations tested” and the “Surviving colonies on agar plates after incubation with HXL008” value [2] was 1-3 colonies. The “Nail penetration, result in words” value [3] was “able to penetrate nails faster and more effectively than the active ingredients of current topical onychomycosis therapies” and the “U937 cells permeabilized (PI-positive)” value [4] was “less than 2%”.
